Values of other authors in US20130296430A1, “COMPOSITIONS AND METHODS FOR TREATING AUTISM AND AUTISM SPECTRUM DISORDER” (priority 2012, published 2013).

Details: doses less than NAC; effects counter to those reported for NAC; Samstrand et al 1999; cited from earlier work

**Q.** Which “bioactive dose relative to NAC” value does the source give for `CC(=O)N[C@@H](CSSC[C@H](NC(C)=O)C(=O)O)C(=O)O` [oxidized form of NAC] here?
**A.** 10-100 fold
